Test results: patent publication US11377442B2, “Small molecule agonists and antagonists of NR2F6 activity” (ZANDER THERAPEUTICS, INC., priority 2016, dated 2022)
≈ marks a conversion by molar mass, not a printed value. Where two headings read alike, the source gives them in different places.

How the values were obtained:
Stability in rat plasma = assay type: in vitro ADME
pH solubility = assay type: physicochemical; settings: for solubility: aqueous buffer, OD 250 nm
pH stability = assay type: physicochemical
[1] = Microsomal stability in rat liver microsomes; assay type: in vitro ADME
[2] = Microsomal stability in mouse liver microsomes; assay type: in vitro ADME
PPB = assay type: in vitro ADME; settings: for recovery: plasma
PK in mice plasma = assay type: in vivo; settings: for Fabs, %: PO 3.18 mg/kg vs IV 1.12 mg/kg; for Vd: plasma, iv
P-gp (MDR1) = biological target: T1, P-gp (MDR1) (Homo sapiens, UniProt P08183); experiment: Caco-2 asymmetry, P-gp substrate; assay type: in vitro ADME
T1 construct: endogenous in cells; host or cells: Caco-2
Procedure: A Caco-2 permeability assay was performed on Compound D136.

[3] = Table 39, PO plasma, 3.18 mg/kg
[4] = Table 41, IV plasma, 1.12 mg/kg
[5] = mouse, Table 39, PO plasma, 3.18 mg/kg
[6] = mouse, Table 41, IV plasma, 1.12 mg/kg

T1 sequence (P08183 whole entry): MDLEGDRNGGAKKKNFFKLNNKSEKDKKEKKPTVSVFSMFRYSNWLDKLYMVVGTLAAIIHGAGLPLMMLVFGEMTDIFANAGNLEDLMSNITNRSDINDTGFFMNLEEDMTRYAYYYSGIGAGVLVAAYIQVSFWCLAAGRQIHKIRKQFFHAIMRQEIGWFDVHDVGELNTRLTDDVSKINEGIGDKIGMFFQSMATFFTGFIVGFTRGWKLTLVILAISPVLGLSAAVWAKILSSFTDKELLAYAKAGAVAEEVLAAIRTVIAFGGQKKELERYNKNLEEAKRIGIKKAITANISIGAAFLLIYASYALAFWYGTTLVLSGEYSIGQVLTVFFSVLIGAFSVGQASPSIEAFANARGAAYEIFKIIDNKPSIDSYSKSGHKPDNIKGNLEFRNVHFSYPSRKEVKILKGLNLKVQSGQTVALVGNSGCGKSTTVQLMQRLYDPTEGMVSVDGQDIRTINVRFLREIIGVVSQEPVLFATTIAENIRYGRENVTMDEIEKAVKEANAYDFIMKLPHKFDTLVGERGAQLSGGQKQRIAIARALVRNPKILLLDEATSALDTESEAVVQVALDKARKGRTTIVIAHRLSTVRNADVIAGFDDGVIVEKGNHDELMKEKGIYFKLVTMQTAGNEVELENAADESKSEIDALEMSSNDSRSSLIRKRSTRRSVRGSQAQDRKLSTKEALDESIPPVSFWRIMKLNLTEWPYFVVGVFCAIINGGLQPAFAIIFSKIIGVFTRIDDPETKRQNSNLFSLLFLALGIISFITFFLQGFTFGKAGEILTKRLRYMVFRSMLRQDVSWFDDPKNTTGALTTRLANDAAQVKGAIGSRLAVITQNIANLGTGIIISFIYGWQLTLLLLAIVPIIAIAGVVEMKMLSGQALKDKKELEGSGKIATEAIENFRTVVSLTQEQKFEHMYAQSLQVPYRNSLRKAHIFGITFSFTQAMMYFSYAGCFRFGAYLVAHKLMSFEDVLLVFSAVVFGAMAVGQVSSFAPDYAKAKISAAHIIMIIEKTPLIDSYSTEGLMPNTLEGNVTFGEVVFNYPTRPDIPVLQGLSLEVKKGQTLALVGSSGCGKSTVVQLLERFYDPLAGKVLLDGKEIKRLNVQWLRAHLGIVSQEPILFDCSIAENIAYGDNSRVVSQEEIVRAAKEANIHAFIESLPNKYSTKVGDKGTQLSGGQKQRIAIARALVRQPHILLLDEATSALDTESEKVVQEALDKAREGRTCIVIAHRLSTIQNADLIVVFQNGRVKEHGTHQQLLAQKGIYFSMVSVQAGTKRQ

Which results are given for `COCCN[C@H]1CS(=O)(=O)C[C@@H]1S(=O)(=O)c1ccc(Cl)cc1` [Compound D136]?
stability in rat plasma (Stability in rat plasma): Stable; solubility (pH solubility; pH 2): 660 µg/mL (≈ 1790 µM); solubility (pH solubility; pH 4): 220 µg/mL (≈ 598 µM); solubility (pH solubility; pH 7): 190 µg/mL (≈ 516 µM); solubility at pH2 (pH solubility; pH2): soluble; solubility at pH4 (pH solubility; pH4): soluble; solubility at pH7.4 (pH solubility; pH7.4): soluble; pH stability at pH2 (pH stability; pH2): extremely stable; pH stability at pH7 (pH stability; pH7): extremely stable; stability in presence of rat liver microsomes [1]: Extremely stable; stability in presence of mouse liver microsomes [2]: Extremely stable; %, Bound (PPB; Human): 51.6%; %, Free (50% pI) (PPB; Human): 65.3%; %, Free (recalc from 50% pI) (PPB; Human): 48.4%; Permeability, % (PPB; Human): 94%; %, Bound (PPB; Rat): 52.0%; %, Free (50% pI) (PPB; Rat): 64.9%; %, Free (recalc from 50% pI) (PPB; Rat): 48.0%; Permeability, % (PPB; Rat): 94%; recovery (PPB; human): 56.9%; recovery (PPB; rat): 122%; K el (PK in mice plasma; [3]): 1.2 h⁻¹; T_½ (PK in mice plasma; [3]): 34.8 min; AUV last (PK in mice plasma; Table 40, IV plasma, 1.12 mg/kg): 124; AUV last (PK in mice plasma; Table 40, PO plasma, 3.18 mg/kg): 116; Fabs, % (PK in mice plasma; Table 40, from AUCinf): 33.2%; Fabs, % (PK in mice plasma; Table 40, from AUV last): 33.0%; K el (PK in mice plasma; [4]): 1.16 h⁻¹; T_½ (PK in mice plasma; [4]): 36 min; Vd (PK in mice plasma; mouse, 1.12 mg/kg, Table 41, IV plasma, 1.12 mg/kg, read-out: Vss): 2.41 L/kg; Vd (PK in mice plasma; mouse, 1.12 mg/kg, Table 41, IV plasma, 1.12 mg/kg, read-out: Vz): 7.74 L/kg; AUC(0-inf) (PK in mice plasma; [5]): 117 ng·h/mL; AUC(0-t) (PK in mice plasma; [5]): 116 ng·h/mL; CL/F (PK in mice plasma; [5]): 452 mL/min/kg; Cmax (PK in mice plasma; [5]): 89.6 ng/mL; MRT inf (PK in mice plasma; [5]): 64.8 min; MRT last (PK in mice plasma; [5]): 62.4 min; Tmax (PK in mice plasma; [5]): 15 min; Vd/F (PK in mice plasma; mouse, Table 39, PO plasma, 3.18 mg/kg, read-out: Vz/F): 22.5 L/kg; AUC(0-inf) (PK in mice plasma; mouse, Table 40, IV plasma, 1.12 mg/kg): 124 ng·h/mL; AUC(0-t) (PK in mice plasma; [6]): 124 ng·h/mL; C0 (PK in mice plasma; [6]): 770 ng/mL; Cmax (PK in mice plasma; [6]): 390 ng/mL; MRT inf (PK in mice plasma; [6]): 16.2 min; MRT last (PK in mice plasma; [6]): 15 min; Tmax (PK in mice plasma; [6]): 4.98 min; clearance (PK in mice plasma; [6]): 150 mL/min/kg; substrate for P-gp (MDR1) (P-gp (MDR1); Caco-2 asymmetry): not a substrate; efflux ratio (P-gp (MDR1); human, Caco-2, Mean Papp B-A / A-B, read-out: Asymmetry Index): 1.5
